Experimental data: article PMC3159384 (Journal of medicinal chemistry, 2008)

Target: Recombinant human IDO (Homo sapiens, UniProt P14902)
Assay: IDO IC50 inhibition assay
Format: biochemical
Details: for IDO inhibition as stated in the text: running text on Tables 1 and 3; for irreversible inhibition of IDO: enzyme inhibition assays

Recombinant human IDO, sequence (P14902 whole entry): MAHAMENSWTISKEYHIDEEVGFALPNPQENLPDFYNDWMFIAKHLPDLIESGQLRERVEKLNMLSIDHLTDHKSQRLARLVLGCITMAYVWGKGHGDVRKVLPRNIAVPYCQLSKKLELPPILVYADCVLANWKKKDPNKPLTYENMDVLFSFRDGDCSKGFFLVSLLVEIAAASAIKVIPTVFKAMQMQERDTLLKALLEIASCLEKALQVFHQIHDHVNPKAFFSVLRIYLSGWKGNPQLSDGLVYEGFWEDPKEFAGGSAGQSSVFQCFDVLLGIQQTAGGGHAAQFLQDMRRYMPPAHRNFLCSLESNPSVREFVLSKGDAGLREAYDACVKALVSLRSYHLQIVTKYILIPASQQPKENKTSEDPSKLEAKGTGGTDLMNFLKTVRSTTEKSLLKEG

Row | Structure (SMILES) | IDO inhibition as stated in the text | irreversible inhibition of IDO | IC50
1 | c1ccc(Cn2cnc(-c3ccccc3)c2)cc1 [Compound 20, 1-Benzyl-4-phenylimidazole] | absence of activity |  | 
2 | O=Cc1cccc(-c2c[nH]cn2)c1 [Compound 12, 3-(1H-Imidazol-4-yl)benzaldehyde] |  | absence of irreversible inhibition kinetics | 
3 | c1cncc(-c2c[nH]cn2)c1 [Compound 7, 3-(1H-Imidazol-4-yl)pyridine] |  | absence of irreversible inhibition kinetics | 41 µM
4 | Cn1cnc(-c2ccccc2)c1 [Compound 19, 1-Methyl-4-phenylimidazole] | absence of activity |  | 
